System: MAGI-CCR5 HeLa cells, HIV-1 IIIB, beta-gal luminescence, 48 h
Test: anti-HIV-1 IIIB activity in MAGI-CCR5 reporter cells – cell-based, MAGI-CCR5 HeLa, beta-gal luminescence, 2% serum, set 2, dose response (AID 504570)

Structure (SMILES) | IC50 [µM]
Cc1c2c(=O)n(-c3nc4ccccc4s3)nc-2cc(O)n1Cc1cccnc1 | 7.09
COc1ccc(CCn2c(O)cc3nn(-c4nc5ccccc5s4)c(=O)c-3c2C)cc1 | 11.8
COc1ccccc1Cn1c(O)cc2nn(-c3nc4ccccc4s3)c(=O)c-2c1C | 26.5
Cc1c2c(=O)n(-c3nc4ccccc4s3)nc-2cc(O)n1Cc1ccccc1Cl | 3.07
Cc1c2c(=O)n(-c3nc4ccccc4s3)nc-2cc(O)n1CCC(C)C | 5.34
Cc1c2c(=O)n(-c3nc4ccccc4s3)nc-2cc(O)n1C1CC1 | 7.53
Cc1c2c(=O)n(-c3nc4ccccc4s3)nc-2cc(O)n1CCc1cccs1 | 26
Cc1c2c(=O)n(-c3nc4ccccc4s3)nc-2cc(O)n1Cc1cccs1 | 11.9
Cc1c2c(=O)n(-c3nc4ccccc4s3)nc-2cc(O)n1Cc1ccccc1 | 14.5
Cc1c2c(=O)n(-c3nc4ccccc4s3)nc-2cc(O)n1Cc1ccc(F)cc1 | 3.75
Cc1c2c(=O)n(-c3nc4ccccc4s3)nc-2cc(O)n1Cc1ccncc1 | 14.7
COc1ccc(Cn2c(O)cc3nn(-c4nc5ccccc5s4)c(=O)c-3c2C)cc1 | 33.6
Cc1c2c(=O)n(-c3nc4ccccc4s3)nc-2cc(O)n1CCc1ccc(O)cc1 | 25.6
